Assay results taken from patent publication US20100126386A1, “RADIATION-CURABLE COATING SUBSTANCES” (Basf Aktiengesellschaft, priority 2004, published 2010).

assay: Testing of the NIR sensitizers in photoinitiator mixtures (exposure of thin coats with halogen lamp); settings: 0.5% by weight NIR sensitizer and 1.5% by weight boronate salt X in the paint base materials
Experimental: The two aforementioned paint base materials were admixed with 0.5% by weight of each NIR sensitizer and 1.5% by weight of the boronate salt X^− and the mixtures were stirred intensively. Thin coats (coat thickness approximately 50 μm) were produced with the resulting mixtures between two glass plates, using spacer sheets. These coats were exposed using a 250 W halogen lamp (distance approximately 15 cm) for 1 minute.

SMILES	dissolution of the NIR sensitizer in the paint base material
CN1\C(=C/C=C/C=C/C=C/C2=[N+](C)c3ccc(Cl)cc3C2(C)C)C(C)(C)c2cc(Cl)ccc21 [Compound A7]	fully dissolved
CCN1/C(=C/C=C2\CCCC(/C=C/C3=[N+](CC)c4ccc(C(F)(F)F)cc4C3(C)C)=C2Cl)C(C)(C)c2cc(C(F)(F)F)ccc21 [Compound A11]	fully dissolved
CCN1/C(=C/C=C2\CCCC(/C=C/C3=[N+](CC)c4ccc(C#N)cc4C3(C)C)=C2Cl)C(C)(C)c2cc(C#N)ccc21 [Compound A12]	fully dissolved
CN1\C(=C/C=C/C=C/C=C/C2=[N+](C)c3ccc(Cl)cc3C2(C)C)C(C)(C)c2cc(Cl)ccc21 [Compound B7]	not completely dissolved
CCN1/C(=C/C=C2\CCCC(/C=C/C3=[N+](CC)c4ccc(C(F)(F)F)cc4C3(C)C)=C2Cl)C(C)(C)c2cc(C(F)(F)F)ccc21 [Compound B11]	not completely dissolved
CCN1/C(=C/C=C2\CCCC(/C=C/C3=[N+](CC)c4ccc(C#N)cc4C3(C)C)=C2Cl)C(C)(C)c2cc(C#N)ccc21 [Compound B12]	not completely dissolved
